Calls of active or inactive are those of the source. The rule behind the calls is not given here.
Legend:
Peritoneal macrophage [1] = assay: Antiinflammatory activity in mouse primary peritoneal macrophages assessed as inhibition of LPS-induced TNF-alpha production at 10 uM preincubated for 30 mins followed by LPS addition and measured after 24 hrs by ELISA relative to control; type: functional
Peritoneal macrophage [2] = assay: Antiinflammatory activity in mouse primary peritoneal macrophages assessed as inhibition of LPS-induced IL-6 production at 10 uM preincubated for 30 mins followed by LPS addition and measured after 24 hrs by ELISA relative to control; type: functional
Peritoneal macrophage [3] = assay: Cytotoxicity against mouse primary peritoneal macrophages assessed as reduction in cell viability at 10 uM after 24 hrs by MTT assay; type: cell-based
Peritoneal macrophage [4] = assay: Antiinflammatory activity in mouse primary peritoneal macrophages assessed as inhibition of LPS-induced TNF-alpha production preincubated for 30 mins followed by LPS addition and measured after 24 hrs by ELISA; type: functional, cell-based
Peritoneal macrophage [5] = assay: Antiinflammatory activity in mouse primary peritoneal macrophages assessed as inhibition of LPS-induced IL-6 production preincubated for 30 mins followed by LPS addition and measured after 24 hrs by ELISA; type: functional, cell-based
Peritoneal macrophage [6] = assay: Antiinflammatory activity in mouse primary peritoneal macrophages assessed as inhibition of LPS-induced IL-6 mRNA expression at 5 to 10 uM by RT-qPCR analysis; type: functional, cell-based
Peritoneal macrophage [7] = assay: Antiinflammatory activity in mouse primary peritoneal macrophages assessed as inhibition of LPS-induced IL-1beta mRNA expression at 5 to 10 uM by RT-qPCR analysis; type: functional, cell-based
Peritoneal macrophage [8] = assay: Antiinflammatory activity in mouse primary peritoneal macrophages assessed as inhibition of LPS-induced VCAM-1 mRNA expression at 5 to 10 uM by RT-qPCR analysis; type: functional, cell-based
Mus musculus [9] = assay: Antiinflammatory activity in C57BL/6 mouse assessed as inhibition of LPS-induced IL-6 mRNA expression in lungs at 10 to 20 mg/kg, ip by RT-qPCR analysis; type: functional, organism-based
Mus musculus [10] = assay: Antiinflammatory activity in C57BL/6 mouse assessed as inhibition of LPS-induced IL-1beta mRNA expression in lungs at 10 to 20 mg/kg, ip by RT-qPCR analysis; type: functional, organism-based
Mus musculus [11] = assay: Antiinflammatory activity in C57BL/6 mouse assessed as inhibition of LPS-induced VCAM-1 mRNA expression in lungs at 10 to 20 mg/kg, ip by RT-qPCR analysis; type: functional, organism-based
Mus musculus [12] = assay: Antiinflammatory activity in C57BL/6 mouse assessed as inhibition of LPS-induced lung edema at 10 to 20 mg/kg, ip pretreated for 30 mins followed by LPS addition measured after 6 hrs by hematoxylin and eosin staining based microscopic analysis; type: functional, organism-based
Mus musculus [13] = assay: Antiinflammatory activity in C57BL/6 mouse assessed as inhibition of LPS-induced alveolar hemorrhage at 10 to 20 mg/kg, ip pretreated for 30 mins followed by LPS addition measured after 6 hrs by hematoxylin and eosin staining based microscopic analysis; type: functional, organism-based
Mus musculus [14] = assay: Antiinflammatory activity in C57BL/6 mouse assessed as inhibition of LPS-induced inflammatory cell infiltration at 10 to 20 mg/kg, ip pretreated for 30 mins followed by LPS addition measured after 6 hrs by hematoxylin and eosin staining based microscopic analysis; type: functional, organism-based
Mus musculus [15] = assay: Antiinflammatory activity in C57BL/6 mouse assessed as inhibition of LPS-induced destruction of alveolar structure at 10 to 20 mg/kg, ip pretreated for 30 mins followed by LPS addition measured after 6 hrs by hematoxylin and eosin staining based microscopic analysis; type: functional, organism-based
Mus musculus [16] = assay: Antiinflammatory activity in C57BL/6 mouse assessed as inhibition of LPS-induced total protein level in bronchoalveolar lavage fluid at 10 to 20 mg/kg, ip pretreated for 30 mins followed by LPS addition measured after 6 hrs; type: functional, organism-based
Mus musculus [17] = assay: Antiinflammatory activity in C57BL/6 mouse assessed as inhibition of LPS-induced TNF-alpha level in bronchoalveolar lavage fluid at 10 to 20 mg/kg, ip pretreated for 30 mins followed by LPS addition measured after 6 hrs; type: functional, organism-based
Mus musculus [18] = assay: Antiinflammatory activity in C57BL/6 mouse assessed as inhibition of LPS-induced IL-6 level in bronchoalveolar lavage fluid at 10 to 20 mg/kg, ip pretreated for 30 mins followed by LPS addition measured after 6 hrs; type: functional, organism-based
Mus musculus [19] = assay: Antiinflammatory activity in C57BL/6 mouse assessed as inhibition of LPS-induced neutrophil filtration in lung by measuring myeloperoxidase activity at 10 to 20 mg/kg, ip pretreated for 30 mins followed by LPS addition measured after 6 hrs by Giemsa staining-based assay; type: functional, organism-based
Mus musculus [20] = assay: Antiinflammatory activity in C57BL/6 mouse assessed as inhibition of LPS-induced macrophage filtration in lung by measuring CD68 protein expression at 10 to 20 mg/kg, ip pretreated for 30 mins followed by LPS addition measured after 6 hrs by immunohistochemistry; type: functional, organism-based
Mus musculus [21] = assay: Antiinflammatory activity in C57BL/6 mouse assessed as inhibition of LPS-induced total number of cells in bronchoalveolar lavage fluid at 10 to 20 mg/kg, ip pretreated for 30 mins followed by LPS addition measured after 6 hrs by Giemsa staining-based assay; type: functional, organism-based
Mus musculus [22] = assay: Antiinflammatory activity in C57BL/6 mouse assessed as reduction in lung wet/dry ratio at 10 to 20 mg/kg, ip pretreated for 30 mins followed by LPS addition measured after 6 hrs; type: functional, organism-based

Cc1ccc(S(=O)(=O)c2cc3cc([N+](=O)[O-])ccc3n2C)cc1
inhibition (Peritoneal macrophage [1]): Active | inhibition (Peritoneal macrophage [2]): Active | Activity (Peritoneal macrophage [3]): Non-Toxic

Cn1c(S(=O)(=O)c2cccs2)cc2ccccc21
inhibition (Peritoneal macrophage [1]): Active | inhibition (Peritoneal macrophage [2]): Active | Activity (Peritoneal macrophage [3]): Non-Toxic

Cc1c(S(=O)(=O)c2ccc(C(F)(F)F)cc2)n(C)c2ccccc12
inhibition (Peritoneal macrophage [1]): Active | inhibition (Peritoneal macrophage [2]): Active | Activity (Peritoneal macrophage [3]): Non-Toxic

Cn1c(S(=O)(=O)c2cccc3ccccc23)cc2ccccc21
inhibition (Peritoneal macrophage [1]): Active | inhibition (Peritoneal macrophage [2]): Active | Activity (Peritoneal macrophage [3]): Non-Toxic

Cn1c(S(=O)(=O)c2ccc(Cl)cc2)cc2ccccc21
inhibition (Peritoneal macrophage [1]): Active | inhibition (Peritoneal macrophage [2]): Active | Activity (Peritoneal macrophage [3]): Non-Toxic

COc1ccc(S(=O)(=O)c2cc3ccccc3n2C)cc1
inhibition (Peritoneal macrophage [1]): Active | inhibition (Peritoneal macrophage [2]): Active | Activity (Peritoneal macrophage [3]): Non-Toxic | IC50 (Peritoneal macrophage [4]): 59400 nM | IC50 (Peritoneal macrophage [5]): 1120 nM

COc1ccc2c(c1)cc(S(=O)(=O)c1ccc(C)cc1)n2C
inhibition (Peritoneal macrophage [1]): Active | inhibition (Peritoneal macrophage [2]): Active | Activity (Peritoneal macrophage [3]): Non-Toxic

COc1ccc(S(=O)(=O)c2[nH]c3cc(C)ccc3c2I)cc1
inhibition (Peritoneal macrophage [1]): Active | inhibition (Peritoneal macrophage [2]): Active | Activity (Peritoneal macrophage [3]): Non-Toxic

Cc1ccccc1S(=O)(=O)c1cc2ccccc2n1C
inhibition (Peritoneal macrophage [1]): Active | inhibition (Peritoneal macrophage [2]): Active | Activity (Peritoneal macrophage [3]): Non-Toxic

Cc1ccc(S(=O)(=O)c2[nH]c3ccccc3c2I)cc1
inhibition (Peritoneal macrophage [1]): Active | inhibition (Peritoneal macrophage [2]): Active | Activity (Peritoneal macrophage [3]): Non-Toxic

CCn1c(-c2ccccc2)c(S(=O)(=O)c2ccc(C)cc2)c2ccccc21
inhibition (Peritoneal macrophage [1]): Active | inhibition (Peritoneal macrophage [2]): Active | Activity (Peritoneal macrophage [3]): Non-Toxic

COc1ccc2c(c1)c(CC(=O)O)c(C)n2C(=O)c1ccc(Cl)cc1 [INDOMETHACIN]
inhibition (Peritoneal macrophage [1]): Active | inhibition (Peritoneal macrophage [2]): Active | Activity (Peritoneal macrophage [3]): Non-Toxic

Cn1c(S(=O)(=O)c2ccc(C(C)(C)C)cc2)cc2ccccc21
inhibition at 10 µM (Peritoneal macrophage [1]): 82% | inhibition at 10 µM (Peritoneal macrophage [2]): 88% | Activity (Peritoneal macrophage [3]): Non-Toxic | IC50 (Peritoneal macrophage [4]): 3080 nM | inhibition (Peritoneal macrophage [4]): Dose-dependent effect | IC50 (Peritoneal macrophage [5]): 1100 nM | inhibition (Peritoneal macrophage [5]): Dose-dependent effect | inhibition (Peritoneal macrophage [6]): Active | inhibition (Peritoneal macrophage [7]): Active | inhibition (Peritoneal macrophage [8]): Active | inhibition (Mus musculus [9]): Active | inhibition (Mus musculus [10]): Active | inhibition (Mus musculus [11]): Active | inhibition (Mus musculus [12]): Active | inhibition (Mus musculus [13]): Active | inhibition (Mus musculus [14]): Active | inhibition (Mus musculus [15]): Active | inhibition (Mus musculus [16]): Active | inhibition (Mus musculus [17]): Active | inhibition (Mus musculus [18]): Active | inhibition (Mus musculus [19]): Active | inhibition (Mus musculus [20]): Active | inhibition (Mus musculus [21]): Active | Activity (Mus musculus [22]): Active

COc1ccc2c(c1)cc(S(=O)(=O)c1ccc(C(C)(C)C)cc1)n2C
inhibition (Peritoneal macrophage [1]): Active | inhibition (Peritoneal macrophage [2]): Active | Activity (Peritoneal macrophage [3]): Non-Toxic

Cc1ccc(S(=O)(=O)c2cc3cc(Br)ccc3n2C)cc1
inhibition (Peritoneal macrophage [1]): Active | inhibition (Peritoneal macrophage [2]): Active | Activity (Peritoneal macrophage [3]): Non-Toxic

Cc1ccc2cc(S(=O)(=O)c3cccc4ccccc34)[nH]c2c1
inhibition (Peritoneal macrophage [1]): Active | inhibition (Peritoneal macrophage [2]): Active | Activity (Peritoneal macrophage [3]): Non-Toxic

CCCCn1c(S(=O)(=O)c2ccc(C)cc2)cc2ccccc21
inhibition (Peritoneal macrophage [1]): Active | inhibition (Peritoneal macrophage [2]): Active | Activity (Peritoneal macrophage [3]): Non-Toxic

Cc1ccc(S(=O)(=O)c2cc3ccc(F)cc3n2C)cc1
inhibition (Peritoneal macrophage [1]): Active | inhibition (Peritoneal macrophage [2]): Active | Activity (Peritoneal macrophage [3]): Non-Toxic

Cc1ccc(S(=O)(=O)c2cc3c(Cl)cccc3[nH]2)cc1
inhibition (Peritoneal macrophage [1]): Active | inhibition (Peritoneal macrophage [2]): Active | Activity (Peritoneal macrophage [3]): Non-Toxic

COc1ccc2c(c1)cc(S(=O)(=O)c1ccc(C(F)(F)F)cc1)n2C
inhibition (Peritoneal macrophage [1]): Active | inhibition (Peritoneal macrophage [2]): Active | Activity (Peritoneal macrophage [3]): Non-Toxic

Cc1ccc(S(=O)(=O)c2[nH]c3cc(C)ccc3c2I)cc1
inhibition (Peritoneal macrophage [1]): Active | inhibition (Peritoneal macrophage [2]): Active | Activity (Peritoneal macrophage [3]): Non-Toxic

Cn1c(S(=O)(=O)c2ccc(C(F)(F)F)cc2)cc2ccccc21
inhibition at 10 µM (Peritoneal macrophage [1]): 82% | inhibition at 10 µM (Peritoneal macrophage [2]): 88% | Activity (Peritoneal macrophage [3]): Non-Toxic | IC50 (Peritoneal macrophage [4]): 8010 nM | inhibition (Peritoneal macrophage [4]): Dose-dependent effect | IC50 (Peritoneal macrophage [5]): 1820 nM | inhibition (Peritoneal macrophage [5]): Dose-dependent effect | inhibition (Peritoneal macrophage [6]): Active | inhibition (Peritoneal macrophage [7]): Active | inhibition (Peritoneal macrophage [8]): Active | inhibition (Mus musculus [9]): Active | inhibition (Mus musculus [10]): Active | inhibition (Mus musculus [11]): Active | inhibition (Mus musculus [12]): Active | inhibition (Mus musculus [13]): Active | inhibition (Mus musculus [14]): Active | inhibition (Mus musculus [15]): Active | inhibition (Mus musculus [16]): Active | inhibition (Mus musculus [17]): Active | inhibition (Mus musculus [18]): Active | inhibition (Mus musculus [19]): Active | inhibition (Mus musculus [20]): Active | inhibition (Mus musculus [21]): Active | Activity (Mus musculus [22]): Active

Cc1ccc(S(=O)(=O)c2cc3c(Cl)cccc3n2C)cc1
inhibition (Peritoneal macrophage [1]): Active | inhibition (Peritoneal macrophage [2]): Active | Activity (Peritoneal macrophage [3]): Non-Toxic

Cn1c(S(=O)(=O)c2ccccc2)cc2ccccc21
inhibition (Peritoneal macrophage [1]): Active | inhibition (Peritoneal macrophage [2]): Active | Activity (Peritoneal macrophage [3]): Non-Toxic

Cc1ccc(S(=O)(=O)c2c(C)n(C)c3ccccc23)cc1
inhibition (Peritoneal macrophage [1]): Active | inhibition (Peritoneal macrophage [2]): Active | Activity (Peritoneal macrophage [3]): Non-Toxic

Cn1c(S(=O)(=O)c2ccc(F)cc2)cc2ccccc21
inhibition (Peritoneal macrophage [1]): Active | inhibition (Peritoneal macrophage [2]): Active | Activity (Peritoneal macrophage [3]): Non-Toxic

Cc1ccc(S(=O)(=O)c2cc3ccc(C)cc3n2C)cc1
inhibition (Peritoneal macrophage [1]): Active | inhibition (Peritoneal macrophage [2]): Active | Activity (Peritoneal macrophage [3]): Non-Toxic

Cn1c(S(C)(=O)=O)cc2ccccc21
inhibition (Peritoneal macrophage [1]): Active | inhibition (Peritoneal macrophage [2]): Active | Activity (Peritoneal macrophage [3]): Non-Toxic

Cc1ccc(S(=O)(=O)c2c(C)c3ccccc3n2C)cc1
inhibition (Peritoneal macrophage [1]): Active | inhibition (Peritoneal macrophage [2]): Active | Activity (Peritoneal macrophage [3]): Non-Toxic

Cc1ccc(S(=O)(=O)c2cc3ccccc3n2C)cc1
inhibition at 10 µM (Peritoneal macrophage [1]): 82% | inhibition at 10 µM (Peritoneal macrophage [2]): 88% | Activity (Peritoneal macrophage [3]): Non-Toxic | IC50 (Peritoneal macrophage [4]): 11900 nM | inhibition (Peritoneal macrophage [4]): Dose-dependent effect | IC50 (Peritoneal macrophage [5]): 2390 nM | inhibition (Peritoneal macrophage [5]): Dose-dependent effect

Cc1c(S(=O)(=O)c2ccc(C(C)(C)C)cc2)n(C)c2ccccc12
inhibition (Peritoneal macrophage [1]): Active | inhibition (Peritoneal macrophage [2]): Active | Activity (Peritoneal macrophage [3]): Non-Toxic

Cn1c(S(=O)(=O)c2ccc(-c3ccccc3)cc2)cc2ccccc21
inhibition (Peritoneal macrophage [1]): Active | inhibition (Peritoneal macrophage [2]): Active | Activity (Peritoneal macrophage [3]): Non-Toxic
